Experimental findings from patent US8119674B2, “4-phenylimidazole-2-thione tyrosinase inhibitors and pharmaceutical/cosmetic applications thereof” (Galderma Research & Development, priority 2007, dated 2012) are described below.

This assay deals with T1, tyrosinase (Mus musculus, UniProt P11344).
T1 construct: the supernatant obtained constitutes the cell lysate used as tyrosinase source in the enzymatic assay; endogenous in cells; host or cells: B16F1 murine melanoma cells, cultured with alpha-MSH; detergent/ultrasound lysate supernatant
T1 sequence (P11344 19-533): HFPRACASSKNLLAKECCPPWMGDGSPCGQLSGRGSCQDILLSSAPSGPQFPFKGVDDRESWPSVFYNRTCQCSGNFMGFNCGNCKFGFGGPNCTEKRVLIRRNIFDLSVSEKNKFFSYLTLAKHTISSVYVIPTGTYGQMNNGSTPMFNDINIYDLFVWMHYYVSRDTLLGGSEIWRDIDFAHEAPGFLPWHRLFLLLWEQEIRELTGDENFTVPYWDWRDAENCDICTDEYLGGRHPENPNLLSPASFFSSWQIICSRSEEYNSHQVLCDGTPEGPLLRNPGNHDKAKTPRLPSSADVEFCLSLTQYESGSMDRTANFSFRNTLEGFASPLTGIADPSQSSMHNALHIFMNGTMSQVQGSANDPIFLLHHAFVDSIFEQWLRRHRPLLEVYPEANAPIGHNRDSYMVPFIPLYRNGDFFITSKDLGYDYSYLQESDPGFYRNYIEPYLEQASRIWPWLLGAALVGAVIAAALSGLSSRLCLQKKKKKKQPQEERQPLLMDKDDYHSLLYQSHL
The experiment in a line: Tyrosinase activity inhibition assay (B16F1 cell lysate, L-tyrosine substrate, MBTH, absorbance at 520 nm). The assay is classed as biochemical. The settings on record: lysate of B16F1 cells (murine melanoma line) as tyrosinase source; 37° C., reading at 520 nm after 6 hours; read-out: Tyrosine hydroxylase/Dopa oxidase IC50. The method, then:
The activity of the inhibitors is measured starting from a lysate of B16F1 cells (murine melanoma line). In the presence of the L-tyrosine substrate, the tyrosinase present in these cells catalyses the hydroxylation of L-tyrosine to give L-DOPA and then the oxidation of the L-DOPA to give dopaquinone. In the presence of MBTH (3-methyl-2-benzothiazolinone hydrazone), the dopaquinone is trapped so as to form a pink complex which absorbs at 520 nm.
The B16F1 cells are cultured in DMEM medium+10% foetal calf serum+10^−9 M α-MSH for 4 days at 37° C. under 7% CO2. They are treated with trypsin, washed with PBS, counted and pelleted. The pellet is taken up at 10^7 cells/ml in lysis buffer (10 mM sodium phosphate, pH 6.8-1% Igepal) and the suspension is treated with ultrasound for 10 seconds. After centrifugation for 30 minutes at 4000 rpm, the supernatant obtained constitutes the cell lysate used as tyrosinase source in the enzymatic assay.
The assays are carried out in duplicate in 384-well plates in a total volume of 50 μl. Each well contains:
40 μl of solution containing 1.25 mM L-tyrosine, 6.25 μM L-DOPA (cofactor) and 3.75 mM MBTH in buffer B (62.25 mM sodium phosphate, pH 6.8-2.5% dimethylformamide),
5 μl of inhibitor diluted in DMSO,
5 μl of cell lysate diluted to ½ in 50 mM Tris HCl buffer, pH 7.5.
The plate is incubated at 37° C. and a spectrophotometric reading is carried out at 520 nm after incubating for 6 hours. To avoid any possible absorption of the products, the system uses corrected absorbance (absorbance at time 6 h−absorbance at time zero).
The inhibitors are assayed in terms of dose-response so as to calculate an IC50 (dose which inhibits 50% of the enzymatic activity).
Several internal controls are added to each experiment:
control for 100% activity: the 5 μl of inhibitor are replaced with 5 μl of DMSO,
control for 50% activity: the 5 μl of inhibitor are replaced with 5 μl of phenylthiourea at 300 μM in DMSO,
control for 0% activity: the L-tyrosine substrate is replaced with buffer B.
In the case of `O=C(O)c1ccc(-c2c[nH]c(=S)[nH]2)cc1` [Compound 3, 4-(4-Carboxyphenyl)-1,3-dihydroimidazole-2-thione], the IC50 turned out to be 200 nM.

Consider `OCc1ccc(-c2c[nH]c(=S)[nH]2)cc1` [Compound 7, 4-(4-(Hydroxymethyl)phenyl)-1,3-dihydroimidazole-2-thione], for which the IC50 was found to be 300 nM.

On to `FC(F)Oc1ccc(-c2c[nH]c(=S)[nH]2)cc1` [Compound 9, 4-(4-(Difluoromethoxy)phenyl)-1,3-dihydroimidazole-2-thione], for which the IC50 stood at 400 nM.

Take `COc1cccc(-c2c[nH]c(=S)[nH]2)c1` [Compound 11, 4-(3-Methoxyphenyl)-1,3-dihydroimidazole-2-thione]: the IC50 is 1400 nM.
